From patent publication US5476866A, “Isoxazoles” (Roussel Uclaf, priority 1993, dated 1995)

Legend:
[1] = Kinetic data: plasma concentrations after oral administration to mice; assay type: in vivo; conditions: 30 mg/kg oral; for half-life: mouse, plasma concentrations monitored for 72 hours, read-out: metabolic half-life (converted); for metabolic half-life relative to the known compound: fraction of known compound's half-life (approximately 21.4 hours)
Experimental: A comparison was made between a known compound, namely 5 -cyclopropyl-N-(4-trifluoromethylphenyl)-isoxazole-4-carboxamide and the compounds of the present invention, namely compounds of Examples 5 and 6 above. The compounds were administered orally to mice at doses of 30 mg/kg and plasma concentrations were monitored for 72 hours.

[2] = tested on: Carrageenan rat paw oedema; assay: Carrageenan rat paw oedema (Test 1); assay type: in vivo, male rats CFHB; conditions: 50 mg/kg p.o.; 1 h before carrageenan; oedema assessed 3 h later
Experimental: Carrageenan rat paw oedema (Test 1)
One hour after the oral administration of the test compounds or control vehicle to groups of 6 to 12 male rats CFHB with a weight range of 160-180 g, 1 mg of carrageenan dissolved in 0.2 ml of saline was injected into the right hind foot pad. Contralateral paws received control saline injections and paw oedema responses were assessed three hours later.

[3] = tested on: Delayed-type hypersensitivity mouse paw oedema; assay: Delayed-type hypersensitivity mouse paw oedema (DTH-M) (Test 2); assay type: in vivo, male mice CD-1; conditions: daily days 4-6, twice day 7, 24 h after MBSA challenge
Experimental: Delayed-type hypersensitivity mouse paw oedema (DTH-M) (Test 2)
Groups of 8 to 10 male mice CD-1 with a weight range of 25-30 g were sensitized by the subcutaneous injection of 1 mg of methylated bovine serum albumin (MBSA) in 0.2 ml volumes of saline/Freund's complete adjuvant (FCA) emulsion. Negative control groups received injections of saline/FCA emulsion. DTH paw oedema responses were assessed twenty-four hours after the right hind foot pad challenge with 0.1 mg of MBSA in 0.05 ml volumes of saline on day seven after sensitization. Contralateral paws received control saline injections. The test compounds or control vehicles were orally administered daily on days four, five, six and twice on day seven, one hour before and six hours after MBSA challenge.

[4] = tested on: Delayed-type hypersensitivity rat paw oedema; assay: Delayed-type hypersensitivity rat paw oedema (Test 3); assay type: in vivo, male rats CFHB; conditions: daily days 4-6, twice day 7, 24 h after antigen challenge
Adjuvant arthritis = Adjuvant arthritis (Test 4); assay type: in vivo, male rats of a Wistar-Lewis strain; conditions: 25 mg/kg p.o. once daily for 12 days from day of immunization; vs untreated control
Experimental: Adjuvant arthritis (Test 4) The investigations were carried out by the method of Pearson (Arthrit. Rheum., Vol. 2, (1959) p. 44). The experimental animals used were male rats of a Wistar-Lewis strain having a body weight between 130 to 200 g. The compounds to be tested were administered orally once daily for 12 days, starting on the day of immunization. The animals of a control group received only the vehicle. Each preparation and control group comprised 6 animals. The criterion used to determine activity was the percentage reduction in the increase in paw volume compared to that of the untreated control group.

[5] = tested on: Reverse Passive Arthus Reaction; assay: Reverse Passive Arthus Reaction (Test 5); assay type: in vivo, male or female Wistar rats; conditions: paw volume at 4 h
Experimental: Reverse Passive Arthus Reaction (Test 5)
One hour before challenge, test compounds were administered orally to male or female Wistar rats weighing 120-200 g. After this pre-treatment period, the reaction was induced by a subplantar injection of goat anti-rat serum in the right hind paw. The left hind paw, which served as a control, was injected with saline alone. Paw volumes were determined immediately and four hours after antibody challenge. Doses are given in units of mg/kg p.o.

[6] = 50 mg/kg p.o. 1 h before challenge
[7] = 100 mg/kg p.o. 1 h before challenge

| Structure (SMILES) | half-life [1] [h] | Test 1 % inhibition [2] [%] | Test 2 % inhibition ([3]; 100 mg/kg p.o.) [%] | Test 3 % inhibition ([4]; 50 mg/kg p.o.) [%] | Test 4 % inhibition (percentage reduction in the increase in paw volume) (Adjuvant arthritis) [%] | Test 5 % inhibition [5, 6] [%] | Test 5 % inhibition [5, 7] [%] | Test 2 % inhibition ([3]; 30 mg/kg p.o.) [%] | Test 3 % inhibition ([4]; 10 mg/kg p.o.) [%] | metabolic half-life relative to the known compound [1] |
| --- | --- | --- | --- | --- | --- | --- | --- | --- | --- | --- |
| O=C(Nc1ccc(C(F)(F)F)cc1)c1cnoc1C1CC1 [5-cyclopropyl-N-(4-trifluoromethylphenyl)-isoxazole-4-carboxamide, reference compound] | ~21.4 | – | – | – | – | – | – | – | – | – |
| Cc1cc(NC(=O)c2cnoc2C2CC2)ccc1Br [Example 1, 5-cyclopropyl-N-(4-bromo-3-methylphenyl)-isoxazole-4-carboxamide] | – | 12 | 41 | 24 | -16 | 42 | 26 | – | – | – |
| O=C(Nc1ccc([N+](=O)[O-])cc1)c1cnoc1C1CC1 [Example 2, 5-cyclopropyl-N-(4-nitrophenyl)-isoxazole-4-carboxamide] | – | 0 | 19 | 52 | 92 | -9 | 27 | – | – | – |
| N#Cc1ccc(NC(=O)c2cnoc2C2CC2)cc1 [Example 3, 5-cyclopropyl-N-(4-cyanophenyl)-isoxazole-4-carboxamide] | – | 43 | – | – | 90 | 41 | 36 | 43 | 60 | – |
| Cc1cc(NC(=O)c2cnoc2C2CC2)ccc1Cl [Example 4, 5-cyclopropyl-N-(4-chloro-3-methylphenyl)-isoxazole-4-carboxamide] | – | 11 | 64 | 32 | 22 | 17 | 28 | – | – | – |
| Cc1cc(NC(=O)c2cnoc2C2CC2)ccc1C#N [Example 5, 5-cyclopropyl-N-(4-cyano-3-methylphenyl)-isoxazole-4-carboxamide] | 7.1 | 18 | – | – | 88 | 23 | 34 | 41 | 62 | about one third |
| Cc1cc(NC(=O)c2cnoc2C2CC2)ccc1C(F)(F)F [Example 6, 5-cyclopropyl-N-(3-methyl-4-trifluoromethylphenyl)-isoxazole-4-carboxamide] | 8.2 | 12 | 34 | 57 | 42 | 24 | 38 | – | – | about one third |
